Test results as given in patent US20240299358A1, “COMPOSITIONS AND METHODS FOR DIAGNOSIS AND TREATMENT OF AUTOIMMUNE DISEASES” (DUKE UNIVERSITY, priority 2021, published 2024).
“Also recorded” adds a separate entry of the source.

Test system: eHsp90
Assay: In vivo tracking of eHsp90 expression in CIA mouse model of RA (flow cytometry, CryoViz imaging)
Procedure: FIG. 5A is a schematic of CIA mouse model of RA experimental design, wherein mice were inoculated with CIA on day 0) and 21. […] 6-hours post treatment mice were whole body cryopreserved. […] Gated regions indicate CD4 and CD8 T-Cell populations isolated from individual mice. eHsp90 expression in CD4 and CD8 T cells 6 hours post HS-131 or HS-198 treatment. N=3+SD. Experiments represent 3 biological replicates.
CIA Disease: Collagen was prepared at 4 mg/ml in 0.01 N acetic acid. Equal volumes of 4 mg/ml collagen and 5 mg/ml Freund's complete adjuvant were emulsified by hand mixing with syringes for approximately 5 min, at which point a bead of this material holds its form when placed in water. On study days 0 and 21, animals were anesthetized with isoflurane and given intradermal injections of a total of 400 μg of type II collagen in Freund's complete adjuvant at the base of the tail.
CryoViz™ Imaging: Whole mice were imaged at 10.23 μm×10.23 μm in-plane resolution using an Olympus MVX-10 microscope with a 1X objective and 0.63× magnification and 40 μm section thickness, using the Cryo Viz™ (BioInVision, Inc., Cleveland, USA). CryoViz™ is a fully automated, serial sectioning-and-imaging system which provides 3-dimensional, tiled, microscopic anatomical bright field and molecular fluorescence images over large fields-of-view such as a whole mouse. Images were acquired using a dual band FITC/TxRed fluorescence filter (Chroma, Inc., Rockingham, VT), a liquid crystal RGB filter and a low-noise monochrome camera. Raw images acquired by the Cryo Viz™ were processed to generate 3D color anatomical brightfield and molecular fluorescence volumes using the Cryo Viz™ Preprocessor software (BioIn Vision, Inc., Cleveland, Ohio). These 3D volumetric image data were then processed using the CryoViz™ 3D Visualizer software (BioInVision, Inc., Cleveland, USA) to obtain 3D reconstructed brightfield and fluorescence volume renderings and movies with 2D slice cutaway animations, showing the 2D/3D biodistribution of TxRed labeled HS-131 within the mouse volume.
This was consistently seen in cell culture, tumor cell xenografts and mouse models of spontaneous metastatic disease (Barrott et al. Chem Biol 20. 1187-1197 (2013)). […] To determine if this phenomenon occurred within the context of a fully functional immune system, the collagen induced arthritic (CIA) mouse model of human rheumatoid arthritis (RA) was utilized (Rice et al. Arthritis Rheum 58. 3765-3775 (2008)). Mice (DBA/IlacJ ˜8 weeks old) reliably develop polyarthritis when immunized against bovine type II collagen (Scarneo et al. Arthritis Res Ther 21, 292 (2019): Campbell et al., Ann Rheum Dis 56, 364-368 (1997)). The disease that occurs is usually non-symmetric, and any combination of paws/joints may be affected. Mice were injected […] with bovine collagen at Day (and then again 21 days later (FIG. 5A). This second injection triggered the development of the CIA related symptoms over the next several days within the joints. A primary mediator of local inflammatory responses in autoimmunity are invading T cell populations recognizing foreign antigens. To determine if invading T cells at sites of active disease expressed eHsp90, the animals were injected with HS-131 or HS-198. This was done at the peak of RA symptoms following the second immune challenge. After 6 hours, the animals were euthanized, immediately cryo-frozen in liquid nitrogen and cryo-sectioned (see, FIG. 5A).
Approximately, 500 40 μm slices were made and each slice imaged with both bright field and by fluorescence at Ex640 nm/Em680 nm. Evaluation of the biodistribution was then made by histological examination of individual slices and after in silico reconstruction of the entire mouse anatomy (see, FIGS. 5B-5E).

## Cc1nn(-c2ccc(C(N)=O)c(NCCCOCCOCCOCCOCCOCCCNCc3ccc(C(=C\C=C4\N(CCCCS(=O)(=O)[O-])c5ccccc5C4(C)C)/C=C/C4=[N+](CCCCS(=O)(=O)O)c5ccccc5C4(C)C)cc3)c2)c2c1C(=O)CC(C)(C)C2 [HS-131]
10 nmoles tail vein, 6 hours post injection (FIGS. 6A-6C)
  probe uptake in joints of naïve non diseased animal compared to CIA diseased animal: no marked HS-131 in the joints
6 hours post tail vein injection
  systemic distribution in whole-body reconstruction of CIA mice: largely confined to areas of active immune cell invasion
6 hours post tail vein injection, CD4 and CD8 T cells (FIG. 5B)
  probe signal (eHsp90 expression) in T cells of PBMC populations from CIA mice by flow cytometry: pronounced eHsp90 expression
6 hours post tail vein injection, cryo-sections (FIG. 5C)
  probe localization in hind leg, knee, hip and paw of CIA mouse: marked increase
24 hours post HS-131 injection (FIG. 7B)
  fluorescence associated with the lower intestine of CIA mice: no discrete fluorescence
mice
  route of elimination / clearance: via the hepatobiliary system and intestines; also recorded: exclusively eliminated through the biliary system and intestine; also recorded: rapid hepatobiliary clearance
